Measurements reported in paper PMC4865820, “Branched Peptide, B2088, Disrupts the Supramolecular Organization of Lipopolysaccharides and Sensitizes the Gram-negative Bacteria” (Scientific Reports, 2016).
Positions of bridges follow the written chain, without caps; N, C: chain ends. Non-standard residues stand in square brackets, D forms with d. Residues, ends and D or L forms follow the SMILES beside them. Chains are numbered I, II in the order given. *: point of attachment. X1 = CC[C@H](C)CCCCC(=O)*; Dab = NCC[C@H](N)C(=O)O

Columns and labels:
lipid A = test: BODIPY TR cadaverine (BC) displacement assay with lipid A; format: binding; conditions: 5 mM HEPES pH 7.4; fluorescence ex 580/em 620 nm
Text: To investigate the interaction of B2088 with LPS, we performed the BODIPY TR cadaverine (BC) displacement assay reported by Wood et al.[22]. The probe binds to the lipid A part of the LPS with moderate affinity and can be displaced by putative LPS-binding molecules. The method was used to probe the affinity of polycationic molecules and LPS binding proteins. First, we determined the affinity of polymyxin B (PMB), a lipopeptide cyclic antibiotic which has a high affinity for LPS. […] Figure 1a,b show the concentration-dependent displacement of LPS/lipid A-bound BC upon addition of B2088. […] To confirm the importance of branching, we determined the BC50 for a linear retrodimer having the amino acid sequence, […] (Fig. 1d). […]
The BC displacement assay was used to determine the ability of each peptide to bind to LPS. […] The maximum fluorescence intensity (Fmax) was determined using a mixture containing 100 μl PMB (50 μg/ml) and 100 μl BC:LPS solution, as PMB is considered the ‘gold standard’ for LPS-sequestering agents. The minimum fluorescence intensity (F0) was measured using 200 μl of BC:LPS mixture to determine the background noise for this experiment. Fluorescence measurements for each peptide (F) were determined using a microplate reader (Model: TECAN Infinite 200, Austria) with excitation and emission wavelengths set at 580 nm and 620 nm respectively. […]

[1] = test system: P. aeruginosa ATCC 9027 and P. aeruginosa DM4877/07 strains; test: Time-kill kinetics; format: cell-based; conditions: ¼ × MIC of B2088 alone, 0–24 h, MHB, 37 °C
Text: It is likely that disruption of the supramolecular organization of LPS could enhance the intracellular accessibility of the antibiotics thus rendering the micro-organisms susceptible at sub-lethal concentration of the drugs. To confirm this, we performed time-kill kinetics at sub-lethal concentration of B2088, antibiotics and their combinations against two different P. aeruginosa strains. […] The effect was quite remarkable for the B2088-gatifloxacin combination as >5 log10 reduction in CFU/ml was apparent in less than 2 h against two different P. aeruginosa strains.
Figure 6 Antimicrobial efficacy of B2088-antibiotics combinations. Time-kill kinetics showing synergism between B2088 and other antibiotics. (a) B2088 and gatifloxacin against P. aeruginosa ATCC 9027 strains. (b) B2088 and gatifloxacin against P. aeruginosa DM4877/07 strains. (c) B2088 and tobramycin against P. aeruginosa DM4877/07 strains. (d) B2088 and chloramphenicol against P. aeruginosa DM4877/07 strains. Note that for simplicity B2088 and the antibiotics are represented by single letter codes (B – B2088, G – gatifloxacin, T – tobramycin, C – chloramphenicol).
The kinetics of bactericidal action of is assessed by using each drug alone or in combinations at their sub-inhibitory MICs. […]

[2] = test system: human corneal epithelial (hTCEpi) cells
Text: To assess the safety of B2088 as a part of preclinical assessment, we used the xCELLigence system for the real-time analysis of cytotoxicity.

[3] = test system: LPS (E. coli serotype 055:B5); conditions: ref Torrent et al. [24]; cited from earlier work
Text: To investigate the interaction of B2088 with LPS, we performed the BODIPY TR cadaverine (BC) displacement assay reported by Wood et al.[22]. The probe binds to the lipid A part of the LPS with moderate affinity and can be displaced by putative LPS-binding molecules. The method was used to probe the affinity of polycationic molecules and LPS binding proteins. First, we determined the affinity of polymyxin B (PMB), a lipopeptide cyclic antibiotic which has a high affinity for LPS.

SMILES: CC(C)[C@H](NC(=O)[C@H](CCCCN)NC(=O)[C@H](CCCNC(=N)N)NC(=O)CNC(=O)[C@@H](N)CCCNC(=N)N)C(=O)N[C@H](C(=O)N[C@@H](CCCNC(=N)N)C(=O)N[C@@H](CCCNC(=N)N)C(=O)NCCCC[C@H](NC(=O)[C@H](CCCNC(=N)N)NC(=O)[C@H](CCCNC(=N)N)NC(=O)[C@@H](NC(=O)[C@@H](NC(=O)[C@H](CCCCN)NC(=O)[C@H](CCCNC(=N)N)NC(=O)CNC(=O)[C@@H](N)CCCNC(=N)N)C(C)C)C(C)C)C(=O)N[C@@H](CCCCN)C(=O)O)C(C)C [B2088] (I: H-RGRKVVRRKK-OH / II: H-RGRKVVRR; amide I:9-II:C; N-terminus and C-terminus assumed)
- ED50 (50% displacement of BC dye from lipid A) (lipid A): 700 ± 140 nM
- Time-kill outcome [1]: no bacteriostatic or bactericidal activity
- Change in CI values with time [2]: significant increase in CI values

SMILES: CC[C@H](C)CCCCC(=O)N[C@@H](CCN)C(=O)N[C@H](C(=O)N[C@@H](CCN)C(=O)N[C@H]1CCNC(=O)[C@H]([C@@H](C)O)NC(=O)[C@H](CCN)NC(=O)[C@H](CCN)NC(=O)[C@H](CC(C)C)NC(=O)[C@@H](Cc2ccccc2)NC(=O)[C@H](CCN)NC1=O)[C@@H](C)O [Polymyxin B, polymyxin B, reference compound] (X1-[Dab]T[Dab][Dab][Dab][dF]L[Dab][Dab]T; lactam 4-C (inferred); N-terminus assumed)
- ED50 (BC displacement from LPS), literature value [3]: 2500 ± 100 nM
